Source: the NIST ThermoML archive (doi:10.1021/acs.jced.8b01120)

Assay: xn = mol fraction of the nth substance listed
Details: 100 kPa, Liquid; for speed of sound: Single path-length method; for mass density: Vibrating tube method

CCCCN(CCCC)CCCC [tributylamine] + CCCOC(C)=O
Details	mass density, 293.15 K [kg/m3]	mass density, 298.15 K [kg/m3]	mass density, 303.15 K [kg/m3]	mass density, 308.15 K [kg/m3]	mass density, 313.15 K [kg/m3]	speed of sound, 293.15 K [m/s]	speed of sound, 298.15 K [m/s]	speed of sound, 303.15 K [m/s]	speed of sound, 308.15 K [m/s]	speed of sound, 313.15 K [m/s]
x1 = 0.0509	876.475	871.105	865.344	859.857	854.206	1193.8	1167.9	1148.6	1127.2	1105.2
x1 = 0.1204	861.989	856.798	851.275	845.985	840.603	1198.3	1173.2	1154.3	1132.9	1111.2
x1 = 0.2066	846.28	841.395	836.192	831.184	826.095	1205.3	1180.5	1161.6	1140.7	1119.1
x1 = 0.306	831.793	827.121	822.274	817.519	812.694	1212	1188.5	1169.1	1148.2	1127.6
x1 = 0.4043	819.864	815.394	810.785	806.239	801.63	1219.3	1196.3	1177	1156.6	1136
x1 = 0.5015	809.872	805.603	801.221	796.775	792.345	1226.3	1204.6	1185.2	1165.4	1144.9
x1 = 0.6007	801.215	797.082	792.841	788.618	784.342	1233.2	1212.4	1192.9	1172.6	1153.4
x1 = 0.7102	793.047	789.025	784.905	780.824	776.694	1241.2	1221.4	1201.8	1182.1	1162.6
x1 = 0.8007	787.307	783.381	779.377	775.39	771.367	1248.5	1228.5	1209.3	1190	1171.2
x1 = 0.9008	781.809	777.98	774.088	770.204	766.273	1255.7	1236.5	1217.8	1197.9	1179.1
x1 = 1	777.006	773.283	769.552	765.811	762.061	1264.2	1245.2	1226.2	1207.4	1188.8
